The source of these data is ChEMBL document CHEMBL1130150, “Conformationally restricted analogues of trimethoprim: 2,6-diamino-8-substituted purines as potential dihydrofolate reductase inhibitors from Pneumocystis carinii and Toxoplasma gondii” (J Med Chem, 1997).

For assay [1], the target named is T1, Bifunctional dihydrofolate reductase-thymidylate synthase (Toxoplasma gondii, UniProt Q07422).
T1 sequence (Q07422 whole entry): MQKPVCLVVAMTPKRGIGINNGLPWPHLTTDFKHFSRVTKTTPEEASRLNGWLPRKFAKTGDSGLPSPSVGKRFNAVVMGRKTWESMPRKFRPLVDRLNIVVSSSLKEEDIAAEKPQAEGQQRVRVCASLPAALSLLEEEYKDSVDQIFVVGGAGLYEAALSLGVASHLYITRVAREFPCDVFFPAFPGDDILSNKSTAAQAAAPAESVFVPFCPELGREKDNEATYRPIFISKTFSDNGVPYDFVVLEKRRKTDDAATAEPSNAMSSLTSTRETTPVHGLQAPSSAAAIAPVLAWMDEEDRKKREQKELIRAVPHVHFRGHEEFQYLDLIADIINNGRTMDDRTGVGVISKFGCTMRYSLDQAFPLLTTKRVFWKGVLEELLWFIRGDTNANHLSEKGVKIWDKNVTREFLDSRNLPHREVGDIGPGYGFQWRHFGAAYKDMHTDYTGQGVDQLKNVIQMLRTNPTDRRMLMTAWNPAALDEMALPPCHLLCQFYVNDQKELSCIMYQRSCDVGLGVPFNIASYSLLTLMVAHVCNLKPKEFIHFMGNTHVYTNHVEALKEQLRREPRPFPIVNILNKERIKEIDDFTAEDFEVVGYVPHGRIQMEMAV
As to the kind of experiment: Inhibition of Toxoplasma gondii dihydrofolate reductase.

The target in assay [2] is T2, Dihydrofolate reductase (Pneumocystis carinii, UniProt P16184).
T2 sequence (P16184 whole entry): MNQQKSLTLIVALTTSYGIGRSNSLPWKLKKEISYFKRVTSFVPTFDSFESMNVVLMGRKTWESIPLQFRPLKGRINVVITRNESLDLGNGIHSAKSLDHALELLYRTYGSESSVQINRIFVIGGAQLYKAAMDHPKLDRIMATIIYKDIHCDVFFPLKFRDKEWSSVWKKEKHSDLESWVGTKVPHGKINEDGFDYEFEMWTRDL
Description: Inhibition of Pneumocystis carinii dihydrofolate reductase

Assay [3] has as its target T3, Dihydrofolate reductase (Rattus norvegicus, UniProt Q920D2).
T3 sequence (Q920D2 whole entry): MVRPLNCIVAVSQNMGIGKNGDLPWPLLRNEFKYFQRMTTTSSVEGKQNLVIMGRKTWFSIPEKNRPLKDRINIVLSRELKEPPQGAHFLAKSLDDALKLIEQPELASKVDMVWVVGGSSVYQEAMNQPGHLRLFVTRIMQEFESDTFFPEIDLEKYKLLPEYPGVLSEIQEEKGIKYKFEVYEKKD
Description: Inhibition of rat liver dihydrofolate reductase

Assay [4] addresses T4, Dihydrofolate reductase (Rattus norvegicus) (UniProt Q920D2).
T4 sequence (whole entry): T3 sequence (Q920D2 whole entry)
Description: Percent inhibition against rat liver Dihydrofolate reductase. More on the design: concentration or dose not given beside the values. To be noted: concentration not given here.

The target of assay [5] is T5, Bifunctional dihydrofolate reductase-thymidylate synthase (Toxoplasma gondii) (UniProt Q07422).
T5 sequence (whole entry): T1 sequence (Q07422 whole entry)
Description: Percent inhibition against Toxoplasma gondii Dihydrofolate reductase. The conditions noted are these: concentration not given here.

Structures are written as SMILES.

On to `COc1cc(OC)c(-c2nc3nc(N)nc(N)c3[nH]2)c(OC)c1`, for which the results for the IC50 in assay [1], in assay [2] and in assay [3] were 0.84 µM, 31.5 µM and 1.88 µM, respectively.

With `COc1cc(OC)c(-c2nc3nc(N)nc(N)c3[nH]2)cc1OC`, the IC50 in assay [1] amounted to 1.5 µM; in assay [2], 22 µM; in assay [3], 7 µM.

`Nc1nc(N)c2[nH]c(-c3ccc(-c4ccccc4)cc3)nc2n1`: the IC50 is 32.9 µM in assay [1], 605 µM in assay [2] and 30.1 µM in assay [3].

`Nc1nc(N)c2[nH]c(-c3c(Cl)cccc3Cl)nc2n1`: the inhibition in assay [4] was determined as 4%; in assay [5], 6%. For the same molecule, the IC50 in assay [1], in assay [2] and in assay [3] was 11 µM in each case.

As to `COc1cc(-c2nc3c(N)nc(N)nc3[nH]2)cc(OC)c1O`, the results for the IC50 in assay [1], in assay [2] and in assay [3] were 1 µM, 68 µM and 15.3 µM, respectively.

Take `COc1cc(-c2nc3[nH]c(N)nc(N)c-3n2)c([N+](=O)[O-])cc1OC`: the inhibition in assay [4] turned out to be 14%.

Regarding `Nc1nc(N)c2[nH]c(CSc3ccc4ccccc4c3)nc2n1`, the figures for the IC50 in assay [1], in assay [2] and in assay [3] were 45 µM, 105 µM and 107 µM, respectively.

With `Nc1nc(N)c2[nH]c(-c3ccc(Cl)c(Cl)c3)nc2n1`, the IC50 in assay [1] worked out at 6.7 µM; in assay [3], 252 µM.

As to `COc1ccc(-c2nc3c(N)nc(N)nc3[nH]2)cc1OC`, the IC50 is 12 µM in assay [2] and 52.3 µM in assay [3].

Consider `Nc1nc(N)c2[nH]c(-c3ccncc3)nc2n1`, for which the inhibition in assay [4] amounted to 0%; in assay [5], 14%. Further, the IC50 in assay [1] came out at 20 µM; in assay [2], 18 µM; in assay [3], 18 µM.

Take `Nc1nc(N)c2nc(C3c4ccccc4-c4ccccc43)[nH]c2n1`: half-maximal inhibition in assay [2] (IC50) was put at 35 µM.

For `Nc1nc(N)c2nc(Cc3ccccc3)[nH]c2n1`, the values for the IC50 in assay [1] and in assay [3] were 0.5 µM and 1.6 µM, respectively.

`Nc1nc(N)c2nc(-c3ccc4ccccc4c3)[nH]c2n1`: the IC50 in assay [1] came out at 27 µM; in assay [2], 113 µM; in assay [3], 280 µM.

For `COc1ccc(OC)c(NCc2nc3c(N)nc(N)nc3[nH]2)c1`, the inhibition in assay [4] came to 15%. In addition, the results for the IC50 in assay [1], in assay [2] and in assay [3] were 49 µM, 29 µM and 29 µM, respectively.

In the case of `COc1ccc(-c2nc3[nH]c(N)nc(N)c-3n2)c2ccccc12`, the inhibition in assay [4] turned out to be 15%; in assay [5] it was 10%. The IC50 in assay [1], in assay [2] and in assay [3] was 13 µM throughout.

On to `COc1cc(OC)cc(-c2nc3nc(N)nc(N)c3[nH]2)c1`, for which the IC50 in assay [1] was determined as 3 µM; in assay [3], 32.4 µM.

For the molecule `Nc1nc(N)c2nc(-c3ccccc3)[nH]c2n1`, the IC50 in assay [1] was found to be 28 µM; in assay [2], 153 µM; in assay [3], 59.9 µM.

For `COc1ccc(-c2nc3nc(N)nc(N)c3[nH]2)c(OC)c1`, the figures for the IC50 in assay [1], in assay [2] and in assay [3] were 2.4 µM, 14 µM and 0.9 µM, respectively.

As to `COc1cc(NCc2nc3[nH]c(N)nc(N)c-3n2)cc(OC)c1OC`, the figures for the inhibition in assay [4] and in assay [5] were 19% and 5%, respectively.

For the molecule `COc1cc(-c2nc3nc(N)nc(N)c3[nH]2)c([N+](=O)[O-])cc1OC`, the IC50 in assay [2] and in assay [3] was 25 µM in each case.

With `COc1ccc(-c2nc3c(N)nc(N)nc3[nH]2)c(OC)c1OC`, the IC50 in assay [1] turned out to be 1.8 µM; in assay [2], 17 µM; in assay [3], 3.7 µM.

With `COc1ccc(OC)c(-c2nc3nc(N)nc(N)c3[nH]2)c1`, the IC50 in assay [1] is 1.7 µM; in assay [2], 37.4 µM; in assay [3] it was 3.5 µM.

In the case of `COc1cc(-c2nc3nc(N)nc(N)c3[nH]2)cc(OC)c1OC`, the IC50 is 2.2 µM in assay [1], 59.4 µM in assay [2] and 13 µM in assay [3].
